# Data published in US20180353483A1, “PHARMACEUTICAL COMPOSITIONS AND METHODS FOR INDOLEAMINE, 2, 3-DIOXYGENASE INHIBITION AND INDICATIONS THEREFOR” (Incyte Corporation, priority 2015, published 2018).
# Where two headings read alike, the source gives them in different places.
# Assay: Pharmacokinetics of Compound 1 in combination with MK-3475 in subjects with various cancers
# Format: in vivo, human
# Settings: human, plasma, oral; for tmax: read-out: tmax; for concentration at 8 day (cycle 1): read-out: Cmin
# Protocol: The subjects were not limited to a specific cancers and study include subjects with various cancers. […] One treatment cycle consisted of 21 days. […] Additional subjects were enrolled in a cohort to achieve the minimum of 3 evaluable subjects if dropouts or dose interruptions or reductions occur that result in a subject being non-evaluable for DLTs. […] An additional safety cohort was opened at 100 mg BID in parallel to 300 mg BID being tested. This may also be limited to subjects with melanoma, NSCLC, or specific cancer types from among those included in Phase 1. The RP2D was selected from the evaluated safety expansions.
# If a dose was missed by more than 4 hours, that dose was skipped and was resumed at the scheduled time.
# Pharmacokinetic samples were obtained at the visits of Cycle 1 Day 1, Cycle 1 Day 8 and Cycle 2 Day 1. […] The exact date and time of the PK blood draws were recorded in the eCRF along with the date and time of the last dose of study drug and details of the last meal preceding the blood draw.
# The planned PK time points were used for preliminary PK analyses.
# [1] = 100 mg BID, Diagnosis DLBCL, steady state C1D8, individual values of 2 subjects
# [2] = 100 mg BID, Diagnosis GU, steady state C1D8, mean ± SD
# [3] = 100 mg BID, Diagnosis NSCLC PD-L1 High, steady state C1D8, mean ± SD
smiles,measurement,setting,value
"NS(=O)(=O)NCCNc1nonc1C(=NO)Nc1ccc(F)c(Br)c1 [Compound 1, 4-({2-[(aminosulfonyl)amino]ethyl}amino)-N-(3-bromo-4-fluorophenyl)-N′-hydroxy-1,2,5-oxadiazole-3-carboximidamide]",AUC(0-t),"100 mg BID, All diagnoses, steady state C1D8, geometric mean, read-out: AUC0-12 h (converted)",4.26 µM·h
same,Cmax,"100 mg BID, All diagnoses, steady state C1D8, mean ± SD",1100 ± 467 nM
same,AUC(0-t),"100 mg BID, All diagnoses, steady state C1D8, mean ± SD, read-out: AUC0-12 h (converted)",4.62 ± 2.14 µM·h
same,Cmax,[1],883 nM
same,AUC(0-t),"100 mg BID, Diagnosis DLBCL, steady state C1D8, individual values of 2 subjects, read-out: AUC0-12 h (converted)",5.32 µM·h
same,tmax,[1],4 h
same,Cmax,"100 mg BID, Diagnosis GU, steady state C1D8, geometric mean",1030 nM
same,AUC(0-t),"100 mg BID, Diagnosis GU, steady state C1D8, geometric mean, read-out: AUC0-12 h (converted)",4.41 µM·h
same,Cmax,[2],1100 ± 400 nM
same,AUC(0-t),"100 mg BID, Diagnosis GU, steady state C1D8, mean ± SD, read-out: AUC0-12 h (converted)",4.98 ± 3.01 µM·h
same,concentration at 8 day (cycle 1),[2],154 ± 203 nM
same,Cmax,"100 mg BID, Diagnosis MEL, steady state C1D8, geometric mean",945 nM
same,AUC(0-t),"100 mg BID, Diagnosis MEL, steady state C1D8, geometric mean, read-out: AUC0-12 h (converted)",3.57 µM·h
same,Cmax,"100 mg BID, Diagnosis MEL, steady state C1D8, mean ± SD",1000 ± 347 nM
same,AUC(0-t),"100 mg BID, Diagnosis MEL, steady state C1D8, mean ± SD, read-out: AUC0-12 h (converted)",3.68 ± 0.852 µM·h
same,AUC(0-t),"100 mg BID, Diagnosis NSCLC PD-L1 High, steady state C1D8, geometric mean, read-out: AUC0-12 h (converted)",4.15 µM·h
same,Cmax,[3],939 ± 549 nM
same,AUC(0-t),"100 mg BID, Diagnosis NSCLC PD-L1 High, steady state C1D8, mean ± SD, read-out: AUC0-12 h (converted)",4.43 ± 1.81 µM·h
same,concentration at 8 day (cycle 1),[3],159 ± 77.7 nM
same,tmax,"100 mg BID, Diagnosis NSCLC PD-L1 High, steady state C1D8, median",3 h
same,Cmax,"100 mg BID, Diagnosis NSCLC PD-L1 Low/NE, steady state C1D8, geometric mean",867 nM
same,AUC(0-t),"100 mg BID, Diagnosis NSCLC PD-L1 Low/NE, steady state C1D8, geometric mean, read-out: AUC0-12 h (converted)",4.3 µM·h
same,Cmax,"100 mg BID, Diagnosis NSCLC PD-L1 Low/NE, steady state C1D8, mean ± SD",879 ± 156 nM
same,AUC(0-t),"100 mg BID, Diagnosis NSCLC PD-L1 Low/NE, steady state C1D8, mean ± SD, read-out: AUC0-12 h (converted)",4.35 ± 0.828 µM·h
same,Cmax,"100 mg BID, Diagnosis OC, steady state C1D8, geometric mean",1110 nM
same,AUC(0-t),"100 mg BID, Diagnosis OC, steady state C1D8, geometric mean, read-out: AUC0-12 h (converted)",4.34 µM·h
same,Cmax,"100 mg BID, Diagnosis OC, steady state C1D8, mean ± SD",1200 ± 487 nM
same,AUC(0-t),"100 mg BID, Diagnosis OC, steady state C1D8, mean ± SD, read-out: AUC0-12 h (converted)",4.66 ± 2.11 µM·h
same,Cmax,"100 mg BID, Diagnosis SCCHN, steady state C1D8, geometric mean",821 nM
same,AUC(0-t),"100 mg BID, Diagnosis SCCHN, steady state C1D8, geometric mean, read-out: AUC0-12 h (converted)",3.81 µM·h
same,Cmax,"100 mg BID, Diagnosis SCCHN, steady state C1D8, mean ± SD",987 ± 612 nM
same,AUC(0-t),"100 mg BID, Diagnosis SCCHN, steady state C1D8, mean ± SD, read-out: AUC0-12 h (converted)",4.29 ± 2.3 µM·h
same,Cmax,"100 mg BID, Diagnosis TNBC, steady state C1D8, geometric mean",1150 nM
same,AUC(0-t),"100 mg BID, Diagnosis TNBC, steady state C1D8, geometric mean, read-out: AUC0-12 h (converted)",4.69 µM·h
same,Cmax,"100 mg BID, Diagnosis TNBC, steady state C1D8, mean ± SD",1210 ± 433 nM
same,AUC(0-t),"100 mg BID, Diagnosis TNBC, steady state C1D8, mean ± SD, read-out: AUC0-12 h (converted)",5.01 ± 2.09 µM·h
same,Cmax,"100 mg BID, Dose Reduction By C4D1 subjects (Table 13), steady state C1D8, geometric mean",953 nM
same,AUC(0-t),"100 mg BID, Dose Reduction By C4D1 subjects (Table 13), steady state C1D8, geometric mean, read-out: AUC0-12 h (converted)",4.42 µM·h
same,Cmax,"100 mg BID, Dose Reduction By C4D1 subjects (Table 13), steady state C1D8, mean ± SD",1040 ± 551 nM
same,AUC(0-t),"100 mg BID, Dose Reduction By C4D1 subjects (Table 13), steady state C1D8, mean ± SD, read-out: AUC0-12 h (converted)",5.1 ± 3.59 µM·h
same,Cmax,"100 mg, All diagnoses, first dose, geometric mean",830 nM
same,AUC(0-t),"100 mg, All diagnoses, first dose, geometric mean, read-out: AUC0-t",2.63 µM·h
same,Cmax,"100 mg, All diagnoses, first dose, mean ± SD",937 ± 469 nM
same,AUC(0-t),"100 mg, All diagnoses, first dose, mean ± SD, read-out: AUC0-t",2.87 ± 1.19 µM·h
same,AUC(0-t),"100 mg, Cohort 3, 100 mg BID, steady state C1D8, geometric mean, read-out: AUC0-12 h (converted)",3.67 µM·h
same,Cmax,"100 mg, Cohort 3, 100 mg BID, steady state C1D8, mean ± SD",956 ± 497 nM
same,AUC(0-t),"100 mg, Cohort 3, 100 mg BID, steady state C1D8, mean ± SD, read-out: AUC0-12 h (converted)",3.91 ± 1.35 µM·h
same,Cmax,"100 mg, Cohort 3, 100 mg, first dose, geometric mean",521 nM
same,AUC(0-t),"100 mg, Cohort 3, 100 mg, first dose, geometric mean, read-out: AUC0-t",1.89 µM·h
same,Cmax,"100 mg, Cohort 3, 100 mg, first dose, mean ± SD",632 ± 508 nM
same,AUC(0-t),"100 mg, Cohort 3, 100 mg, first dose, mean ± SD, read-out: AUC0-t",2.09 ± 1.15 µM·h
same,tmax,"100 mg, Cohort 3, 100 mg, first dose, median",4 h
same,AUC(0-t),"100 mg, Cohort 5, 100 mg BID, steady state C1D8, geometric mean, read-out: AUC0-12 h (converted)",3.53 µM·h
same,Cmax,"100 mg, Cohort 5, 100 mg BID, steady state C1D8, mean ± SD",905 ± 421 nM
same,AUC(0-t),"100 mg, Cohort 5, 100 mg BID, steady state C1D8, mean ± SD, read-out: AUC0-12 h (converted)",3.79 ± 1.43 µM·h
same,Cmax,"100 mg, Cohort 5, 100 mg, first dose, geometric mean",787 nM
same,AUC(0-t),"100 mg, Cohort 5, 100 mg, first dose, geometric mean, read-out: AUC0-t",2.46 µM·h
same,Cmax,"100 mg, Cohort 5, 100 mg, first dose, mean ± SD",852 ± 340 nM
same,AUC(0-t),"100 mg, Cohort 5, 100 mg, first dose, mean ± SD, read-out: AUC0-t",2.58 ± 0.778 µM·h
same,tmax,"100 mg, Cohort 5, 100 mg, first dose, median",1.5 h
same,Cmax,"100 mg, Diagnosis DLBCL, first dose, geometric mean",664 nM
